Measurements taken from ChEMBL document CHEMBL1128148, “Molecular design of novel PGI2 agonists without PG skeleton. III” (Bioorg Med Chem Lett, 1995).

How the values were obtained:
[1] = species on record: Homo sapiens; assay: Compound was tested for the inhibition of 4 uM ADP-induced platelet aggregation by using human platelet rich plasma; format: functional
[2] = molecular target: T1, Prostacyclin receptor (Homo sapiens, UniProt P43119); assay: Compound was tested for prostacyclin (PGI-2) binding by displacement of [3H]iloprost from human platelets using conventional ligand binding assay
T1 sequence (P43119 whole entry): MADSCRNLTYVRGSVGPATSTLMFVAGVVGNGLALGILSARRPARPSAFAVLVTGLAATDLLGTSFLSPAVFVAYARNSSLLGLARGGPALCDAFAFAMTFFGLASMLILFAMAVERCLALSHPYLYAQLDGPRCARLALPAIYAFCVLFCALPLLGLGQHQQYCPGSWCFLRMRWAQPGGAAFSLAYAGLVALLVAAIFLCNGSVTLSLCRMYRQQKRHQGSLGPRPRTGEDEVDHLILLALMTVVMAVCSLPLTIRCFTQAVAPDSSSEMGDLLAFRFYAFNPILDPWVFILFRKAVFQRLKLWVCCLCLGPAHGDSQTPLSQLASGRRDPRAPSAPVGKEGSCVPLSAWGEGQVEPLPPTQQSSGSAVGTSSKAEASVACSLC

[3] = molecular target: T1, Prostacyclin receptor; assay: Compound was tested for prostacyclin (PGI-2) binding by displacement of [3H]iloprost from human platelets.; details: concentration not given here

SMILES	IC50 [1] [nM]	IC50 [2] [nM]	inhibition [3] [%]
O=C(O)COc1cccc2c1CCCC2CCCCOC(c1ccccc1)c1ccccc1 (stereo unspecified)	11000	4200	–
O=C(O)COc1cccc2c1CCC(CCCOC(c1ccccc1)c1ccccc1)C2 (stereo unspecified)	> 20000	> 10000	25
O=C(O)COc1cccc2c1CCC(CCOC(c1ccccc1)c1ccccc1)C2 (stereo unspecified)	> 20000	8000	–
O=C(O)COc1cccc2c1CCC(CON=C(c1ccccc1)c1ccccc1)C2 (stereo unspecified)	2400	2400	–

Now those with a lower IC50 [1], led by results:

IC50 [1] [nM]	IC50 [2] [nM]	inhibition [3] [%]	SMILES
250	210	–	O=C(O)COc1cccc2c1CCCC2CCON=C(c1ccccc1)c1ccccc1 (stereo unspecified)
450	460	–	O=C(O)COc1cccc2c1CCCC2CCCOC(c1ccccc1)c1ccccc1 (stereo unspecified)
150	–	–	O=C(O)COc1cccc2c1CCC(CC(=O)NN(c1ccccc1)c1ccccc1)C2 (stereo unspecified)
57	10	–	O=C(O)COc1cccc2c1CCCC2CCC(=O)NN(c1ccccc1)c1ccccc1 (stereo unspecified)
